Experiment [1] addresses T1, PSD-95 PDZ1 (Homo sapiens, UniProt P78352).
T1 construct: PSD-95 PDZ1 (aa 61–151); made in house; host or cells: E. coli One Shot BL21 Star (DE3)
The experiment can be described thus: SPR steady-state binding to immobilized PSD-95 PDZ1. The source says:
(§1) To confirm the affinities measured by FP using an orthogonal method and to get information about the kinetics of the GPCR–PDZ interactions, we used SPR. This label-free, surface sensitive technique measures the binding of a ligand to an immobilized protein as a function of time based on refractive index changes.
(§2) For each of the PSD-95 PDZ domains, we determined the K d and the stability of the complexes for selected GPCR C-tail peptides. The residence time τ ( = 1/k d) was used as a convenient measure of the stability of the complexes. […] The K d determined from the steady-state responses of a range of C-tail peptide concentrations (Figure 2B and Table S4) correlated well with the K i values obtained by FP (Figure S1).
A Biacore X100 (GE Healthcare) SPR instrument equilibrated to 25.0°C and equipped with a Sensor Chip CM5 (for PDZ1 and PDZ2) or CM4 (for PDZ3) (GE Healthcare) was used for the SPR measurements. The running buffer was HBS-EP+ (10 mM HEPES pH 7.4, 150 mM NaCl, 3 mM EDTA, 0.05% Surfactant P-20 (GE Healthcare)).
PDZ domains were immobilized by amine coupling at a flow rate of 5 µl/min on a surface activated by a 7 min injection of a 1∶1 mixture of 0.4 M 1-ethyl-3-(3-dimethylaminopropyl) carbodiimide (EDC) and 0.1 M N-hydroxysuccinimide (NHS). The remaining active groups were deactivated by a 7 min injection of 1 M ethanolamine HCl pH 8.5. 750 RU PDZ1, 780 RU PDZ2, and 410 RU PDZ3 were immobilized.
GPCR C-tail peptide samples were injected in increasing concentrations for 1 min with 1 min dissociation time at 30 µl/min. Reproducibility was tested by injecting the 20 µM sample again after the highest concentration sample. The binding curves were corrected by subtraction of buffer blanks and the response from a reference surface that was activated with EDC and NHS and deactivated with ethanolamine like the surface with immobilized PDZ domain. For peptides with a cysteine, 1 mM dithiothreitol (DTT) was added to the samples. Steady-state response curves were plotted from the responses 10 s before injection end. The K d was determined by fitting steady-state response curves to a 1∶1 binding model with a linear component to corrrect for low affinity binding, probably resulting from the immobilization: Y = Ymax × X/(X+K d)+B × X.

Experiment [2] deals with T2, PSD-95 PDZ2 (Homo sapiens, UniProt P78352).
T2 construct: PDZ2 (aa 155–249); made in house; host or cells: E. coli One Shot BL21 Star (DE3)
The experiment can be described thus: SPR steady-state binding to immobilized PSD-95 PDZ2.
Description: as §1, §2
(§3) A Biacore X100 (GE Healthcare) SPR instrument equilibrated to 25.0°C and equipped with a Sensor Chip CM5 (for PDZ1 and PDZ2) or CM4 (for PDZ3) (GE Healthcare) was used for the SPR measurements. The running buffer was HBS-EP+ (10 mM HEPES pH 7.4, 150 mM NaCl, 3 mM EDTA, 0.05% Surfactant P-20 (GE Healthcare)). […]
(§4) GPCR C-tail peptide samples were injected in increasing concentrations for 1 min with 1 min dissociation time at 30 µl/min. […] The K d was determined by fitting steady-state response curves to a 1∶1 binding model with a linear component to corrrect for low affinity binding, probably resulting from the immobilization: Y = Ymax × X/(X+K d)+B × X.

The target of experiment [3] is T3, PSD-95 PDZ3 (Homo sapiens, UniProt P78352).
T3 construct: made in house; host or cells: E. coli One Shot BL21 Star (DE3)
The experiment can be described thus: SPR steady-state binding to immobilized PSD-95 PDZ3.
Description: as §1, §2, §3, §4

Another experiment deals with PSD-95. The experiment can be described thus: FP competition assay, PSD-95 PDZ domains overall (strongest binding domain / non-binders). To be noted: FP competition with the isolated PDZ domains, peptide typically 1–512 µM. The protocol: (§5) We used a competition set-up, where a constant concentration of isolated PSD-95 PDZ domain and a labeled reference ligand was titrated with unlabeled peptides from the GPCR C-tail library, typically within a 1–512 µM concentration range, and the resulting curves were fitted to obtain the IC50, which was used to calculate the K i (Figure 1). Three Cy5-labeled peptides with well-documented interactions with PSD-95 were used as reference ligands for the competition assay: Cy5-KIF1Bα was used for PDZ1 [20], Cy5-GluN2B (formerly known as NR2B) was used for PDZ2 and PDZ1-2 [21], and Cy5-CRIPT was used for PDZ3 [22] (Table S1). Competition with unlabeled versions of the reference ligands was used to validate the FP assay by comparison with the literature (Table S2).
(§6) FP measurements were performed in black, flat bottom 384-well NBS microplates (Corning) on a Synergy H4 microplatereader (BioTek Instruments) equipped with a 620/40 nm excitation filter, a 680/30 nm emission filter, and a 660 nm dichroic mirror. Polarization values were corrected with blank samples and samples with fluorescent probe alone. At least 10 data points were measured for each curve, and each data point was measured in triplicate. 25 nM Cy5-labeled probe was used for each assay: Cy5-KIF1Bα for PDZ1, Cy5-GluN2B for PDZ2 and PDZ1-2, and Cy5-CRIPT for PDZ3. All FP measurements were performed in a buffer containing 10 mM HEPES pH 7.4, 150 mM NaCl, and 1% BSA and incubated at least 15 min at room temperature before reading. The signal was stable for more than an hour, showing that the reaction was at equilibrium.
(§7) For the competition binding curves, probe was mixed with a constant concentration of PDZ protein corresponding to the K d and a twofold dilution series of unlabeled peptide in a total volume of 30 µl. The baseline was determined using a sample containing only probe. The IC50 was determined by fitting to a 1∶1 binding model: Y = Ymax − Ymax × X/(X+IC50). The K i was calculated from the IC50 and from the K d for the interaction between the PDZ protein and the probe as described previously.

In a further experiment the test system is PSD-95 PDZ domains. The experiment can be described thus: Time-resolved SPR, PSD-95 PDZ domains (kinetics). It counts as binding. The note with it: 500 µM C-tail peptide, all three PDZ domains.
Description: as §2
For all combinations of PDZ domains and GPCR C-tail peptides, we observed dissociation of the complexes within the first second of the dissociation phase (Figure 2A) (faster than the time-resolution of the instrument), meaning that τ is less than 1 s (k d >1 s^−1). This implies that the GPCR–PDZ complexes are very transient, which is in agreement with previous work.
A Biacore X100 (GE Healthcare) SPR instrument equilibrated to 25.0°C and equipped with a Sensor Chip CM5 (for PDZ1 and PDZ2) or CM4 (for PDZ3) (GE Healthcare) was used for the SPR measurements. […]
as §4

The target in experiment [4] is T1, PSD-95 PDZ1. The experiment can be described thus: FP competition assay, PSD-95 PDZ1 (probe Cy5-KIF1Bα). To be noted: 25 nM Cy5-KIF1Bα, 10 mM HEPES pH 7.4, 150 mM NaCl, 1% BSA, room temperature, read-out: K i PDZ1. It counts as binding.
Description: (§8) FP measurements were performed in black, flat bottom 384-well NBS microplates (Corning) on a Synergy H4 microplatereader (BioTek Instruments) equipped with a 620/40 nm excitation filter, a 680/30 nm emission filter, and a 660 nm dichroic mirror. Polarization values were corrected with blank samples and samples with fluorescent probe alone. At least 10 data points were measured for each curve, and each data point was measured in triplicate. […] All FP measurements were performed in a buffer containing 10 mM HEPES pH 7.4, 150 mM NaCl, and 1% BSA and incubated at least 15 min at room temperature before reading. The signal was stable for more than an hour, showing that the reaction was at equilibrium.
(§9) For the competition binding curves, probe was mixed with a constant concentration of PDZ protein corresponding to the K d and a twofold dilution series of unlabeled peptide in a total volume of 30 µl. The baseline was determined using a sample containing only probe. The IC50 was determined by fitting to a 1∶1 binding model: Y = Ymax − Ymax × X/(X+IC50). The K i was calculated from the IC50 and from the K d for the interaction between the PDZ protein and the probe as described previously [38].
The target in experiment [5] is T2, PSD-95 PDZ2. The experiment can be described thus: FP competition assay, PSD-95 PDZ2 (probe Cy5-GluN2B). The note with it: read-out: K i PDZ2. It counts as binding.
Description: as §8, §9
The target of experiment [6] is T3, PSD-95 PDZ3. The experiment can be described thus: FP competition assay, PSD-95 PDZ3 (probe Cy5-CRIPT). Type of experiment: binding. The note with it: read-out: K i PDZ3. The protocol:
as §5, §6
Saturation binding curves were used to determine the functionality of the PDZ domains by comparison with literature values and to calculate K i values from competition curves. Saturation binding curves were performed by mixing probe with a twofold dilution series of PDZ protein in a total volume of 30 µl. The K d was determined by fitting to a 1∶1 binding model: Y = Ymax × X/(X+K d).
as §7

Where [7] appears, read: mean Ki ± SEM from two or more independent experiments.

Like-named read-outs stand apart in the source and are kept apart here. Peptide text beside a SMILES is read from it. Some results are limits rather than exact numbers.

Consider `CC[C@H](C)[C@H](NC(=O)[C@H](CO)NC(=O)[C@H](CO)NC(=O)[C@H](CCC(=O)O)NC(=O)[C@@H](NC(=O)[C@H](Cc1c[nH]c2ccccc12)NC(=O)[C@H](C)NC(=O)[C@H](CCCNC(=N)N)NC(=O)[C@H](CCCNC(=N)N)NC(=O)[C@H](CC(=O)O)NC(=O)[C@@H](N)CC(=O)O)[C@@H](C)O)C(=O)N[C@@H](CC(N)=O)C(=O)N[C@H](C(=O)O)[C@@H](C)O` (H-DDRRAWTESSINT-OH; N-terminus assumed), for which the Kd on PSD-95 PDZ1 [1], at PSD-95 PDZ2 [2] and at PSD-95 PDZ3 [3] was above 1000 µM each time. In the experiment on PSD-95, the “Interaction with PSD-95 using fluorescence polarization” value is “not to interact”. The “Time-resolved binding to PSD-95 PDZ1, PDZ2 and PDZ3 by SPR” value in the experiment with PSD-95 PDZ domains was “did not interact”.

Consider `CC[C@H](C)[C@H](NC(=O)[C@H](CCCNC(=N)N)NC(=O)[C@H](CO)NC(=O)[C@H](C)NC(=O)[C@H](CS)NC(=O)[C@@H](NC(=O)CNC(=O)[C@H](CCCNC(=N)N)NC(=O)[C@H](CC(=O)O)NC(=O)[C@H](CC(=O)O)NC(=O)[C@@H](N)Cc1ccc(O)cc1)[C@@H](C)O)C(=O)N[C@@H](CO)C(=O)N[C@H](C(=O)N[C@@H](CC(C)C)C(=O)O)[C@@H](C)O` [SSTR1 Mouse] (H-YDDRGTCASRISTL-OH), for which the Ki was 270 ± 35 µM on PSD-95 PDZ1 [4] (at least 15 min, Ki ± fitting error); 90 ± 14 µM at PSD-95 PDZ2 [5]; above 1000 µM on PSD-95 PDZ3 [6]. The compound further yielded a Kd on PSD-95 PDZ1 [1] of 270 ± 9.1 µM.

Turning to `CC[C@H](C)[C@H](NC(=O)[C@H](CC(=O)O)NC(=O)[C@H](CCC(N)=O)NC(=O)[C@H](CCCNC(=N)N)NC(=O)[C@H](CC(=O)O)NC(=O)[C@H](CC(=O)O)NC(=O)[C@@H](N)Cc1ccc(O)cc1)C(=O)N[C@H](C(=O)N[C@@H](CC(=O)O)C(=O)N[C@@H](CC(C)C)C(=O)N[C@@H](CCC(N)=O)C(=O)N[C@H](C(=O)N[C@@H](CCC(=O)O)C(=O)N[C@H](C(=O)O)C(C)C)[C@@H](C)O)[C@@H](C)CC` [BAI1] (H-YDDRQDIIDLQTEV-OH), the Ki on PSD-95 PDZ1 [4] (setting [7]) amounted to 63 ± 6.3 µM; on PSD-95 PDZ2 [5], 29 ± 1.9 µM; on PSD-95 PDZ3 [6], 790 ± 93 µM. This compound also gave a Kd at PSD-95 PDZ1 [1] of 120 ± 3.8 µM.

For the compound `CC[C@H](C)[C@H](NC(=O)[C@H](CCCNC(=N)N)NC(=O)[C@H](CO)NC(=O)[C@@H](NC(=O)[C@H](CS)NC(=O)[C@@H](NC(=O)CNC(=O)[C@H](CCCNC(=N)N)NC(=O)[C@H](CC(=O)O)NC(=O)[C@H](CC(=O)O)NC(=O)[C@@H](N)Cc1ccc(O)cc1)[C@@H](C)O)[C@@H](C)O)C(=O)N[C@H](C(=O)N[C@H](C(=O)N[C@@H](CC(C)C)C(=O)O)[C@@H](C)O)[C@@H](C)O` [SSTR1 Human] (H-YDDRGTCTSRITTL-OH), the Ki on PSD-95 PDZ1 [4] (setting [7]) was found to be 50 ± 3.2 µM; at PSD-95 PDZ2 [5], 28 ± 2 µM; on PSD-95 PDZ3 [6], 200 ± 34 µM. This compound had a Kd on PSD-95 PDZ2 [2] of 76 ± 1.5 µM.

For `CC[C@H](C)[C@H](NC(=O)[C@H](CCCNC(=N)N)NC(=O)[C@H](CCC(=O)O)NC(=O)[C@H](CO)NC(=O)[C@@H](NC(=O)[C@@H](NC(=O)[C@H](CO)NC(=O)[C@H](CCCNC(=N)N)NC(=O)[C@H](CC(=O)O)NC(=O)[C@H](CC(=O)O)NC(=O)[C@@H](N)Cc1ccc(O)cc1)C(C)C)C(C)C)C(=O)N[C@@H](CO)C(=O)N[C@@H](CO)C(=O)N[C@H](C(=O)O)C(C)C` [5-HTR2C] (H-YDDRSVVSERISSV-OH), the figures for the Ki on PSD-95 PDZ1 [4] (setting [7]), on PSD-95 PDZ2 [5] and at PSD-95 PDZ3 [6] were 100 ± 0.1 µM, 26 ± 0.4 µM and 370 ± 40 µM, respectively. In addition, binding on PSD-95 PDZ1 [1] was characterised by a dissociation constant (Kd) of 160 ± 12 µM.

The values are drawn from publication PMC3653948, “PDZ Domain-Mediated Interactions of G Protein-Coupled Receptors with Postsynaptic Density Protein 95: Quantitative Characterization of Interactions” (PLoS ONE, 2013).
